Results as given in patent US20230234991A1, “SELF-ASSEMBLED PEPTIDE NANORODS AND USES THEREOF” (TRANSFERT PLUS, SOCIÉTÉ EN COMMANDITE, priority 2020, published 2023).
“Also recorded” adds a separate entry of the source.

Experiments:
TLR2 = biological target: T1, TLR2 (Mus musculus, UniProt Q9QUN7); experiment: TLR-2 stimulation, SEAP activity in HEK-Blue mTLR2 cells; type: cell-based
T1 construct: host or cells: HEK293 (HEK-Blue mTLR2)
Procedure: TLR-2 stimulation. HEK293 cells stably co-transfected with mTLR2 and SEAP (HEK-Blue mTLR2 cells, InvivoGen) were cultivated in Dulbecco's Modified Eagle's Medium supplemented with 4.5 g/I glucose, 10% (v/v) fetal bovine serum, 100 U/ml penicillin, […], […], 2 mM L-glutamine. At 50-80% confluency, cells were seeded in Hek-Blue detection medium (InvivoGen) at a density of 50,000 cells/well in a 96-well plate containing NRs and controls. After 16 h incubation at 37° C. in 5% CO2, absorbance was monitored at 630 nm.

[1] = tested on: influenza virus A/PuertoRico/8/34; design: species or system BALB/c mice; conditions: mouse, in vivo
M2e = tested on: M2e; design: species or system BALB/c mice; conditions: mouse, in vivo, sc

T1 sequence (Q9QUN7 25-784): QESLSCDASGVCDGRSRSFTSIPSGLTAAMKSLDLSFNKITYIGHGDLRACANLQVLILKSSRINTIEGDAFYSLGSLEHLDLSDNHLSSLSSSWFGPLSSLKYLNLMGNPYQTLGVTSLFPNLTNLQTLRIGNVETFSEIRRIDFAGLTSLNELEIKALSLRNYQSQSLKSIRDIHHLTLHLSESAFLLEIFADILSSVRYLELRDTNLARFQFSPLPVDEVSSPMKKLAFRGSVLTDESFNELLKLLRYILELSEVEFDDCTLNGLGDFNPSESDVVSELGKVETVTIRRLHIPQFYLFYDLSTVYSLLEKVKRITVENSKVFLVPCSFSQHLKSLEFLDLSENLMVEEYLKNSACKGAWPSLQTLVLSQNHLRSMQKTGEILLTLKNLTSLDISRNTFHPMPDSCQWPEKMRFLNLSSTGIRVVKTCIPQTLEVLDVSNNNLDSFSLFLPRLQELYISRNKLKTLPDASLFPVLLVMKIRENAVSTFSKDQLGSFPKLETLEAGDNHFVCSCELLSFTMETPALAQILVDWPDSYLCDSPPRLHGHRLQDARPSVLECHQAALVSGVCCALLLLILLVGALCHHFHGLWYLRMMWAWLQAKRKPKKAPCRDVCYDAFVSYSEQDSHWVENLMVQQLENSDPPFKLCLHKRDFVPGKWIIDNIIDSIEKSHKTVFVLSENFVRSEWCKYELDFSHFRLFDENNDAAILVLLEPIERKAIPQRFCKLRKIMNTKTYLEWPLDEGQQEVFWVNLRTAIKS

## SLLTEVETPIRNEWGSRSNGSSD [Peptide M2e]
TLR2
  SEAP activity: no activity was measured
[1]
  mortality: 100%
M2e
  M2e-specific antibody response (IgG): did not raise any significant level of epitope-specific IgG; also recorded: very low antibody response; also recorded: significant antibody titer
